Data as given in patent US4939133A, “N-substituted-2-hydroxy-α-oxo-benzeneacetamides and pharmaceutical compositions having activity as modulators of the arachidonic acid cascade” (Warner-Lambert Company, priority 1985, dated 1990).
Where “and” joins values, the source holds several entries; their conditions need not be identical. Equal values may be shown once. Read-outs that look alike come from different tables or passages of the source.

Legend:
[1] = molecular target: T1, human leukocyte 5-lipoxygenase (Homo sapiens, UniProt P09917); experiment: 5-Lipoxygenase inhibition in human leukocytes, 5-HETE formation (5LOA1, 5LOA in Table 6); assay type: cell-based; settings: 50% inhibition of 5-HETE formation, E -number means X 10^-no.
T1 construct: endogenous in cells; host or cells: leukocytes from fresh blood of normal adult men
T1 sequence (P09917 1-674): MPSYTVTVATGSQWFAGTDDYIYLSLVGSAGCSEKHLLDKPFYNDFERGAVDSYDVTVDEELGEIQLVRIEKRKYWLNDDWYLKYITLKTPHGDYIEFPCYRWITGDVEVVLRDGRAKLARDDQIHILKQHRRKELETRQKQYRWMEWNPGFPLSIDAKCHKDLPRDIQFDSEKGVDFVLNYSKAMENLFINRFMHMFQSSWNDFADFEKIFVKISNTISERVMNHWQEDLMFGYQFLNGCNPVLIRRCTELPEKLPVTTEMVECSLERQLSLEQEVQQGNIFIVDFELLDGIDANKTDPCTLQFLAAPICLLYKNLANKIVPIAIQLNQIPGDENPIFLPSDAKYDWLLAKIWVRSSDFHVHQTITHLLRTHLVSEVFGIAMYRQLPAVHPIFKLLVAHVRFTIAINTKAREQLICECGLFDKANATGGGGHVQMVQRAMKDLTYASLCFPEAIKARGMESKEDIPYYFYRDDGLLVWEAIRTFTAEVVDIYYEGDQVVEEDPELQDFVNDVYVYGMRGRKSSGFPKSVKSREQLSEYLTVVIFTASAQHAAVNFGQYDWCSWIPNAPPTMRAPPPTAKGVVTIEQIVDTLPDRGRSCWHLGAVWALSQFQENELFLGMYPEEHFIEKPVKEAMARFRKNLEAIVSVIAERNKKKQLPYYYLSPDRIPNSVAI
Description: To Evaluate the Effect of Each Compounds as a 5-Lipoxygenase Inhibitor in Comparison to Standard Reference Agents in Human Leukocytes (5LOAl)
The purpose of this assay is to evaluate the activity of each compound as an inhibitor of human leukocyte 5-lipoxygenase.
Arachidonic acid and calcium ionophore A23187 are obtained from Sigma (St. Louis, MO). Silica gel plates, GF are obtained from Analtech (Newark, DE). Arachidonic acid, (1-^14 C) and 5-HETE (^3 H), 5-(S)-hydroxy-6-trans, 8,11,14-cis eicosatetraenoic acid, are obtained from New England Nuclear (Boston, MA). Six percent Dextran-70 in 0.9% NaCl is obtained from Cuffer Labs (Berkeley, CA).
Preparation of Leukocytes
Fresh blood from normal adult men who had not received any drugs for at least the previous five days is obtained by the Community Research Clinic (WL/PD) using venipuncture and collected into heparinized vacuotainer tubes. To every 100 ml of pooled blood is added 25 ml of dextran solution (6% dextran -70 in 0.9% sodium chloride containing 3% dextrose) and this is mixed gently in a plastic cylinder. The mixture is left to stand at room temperature for at least 90 minutes. The upper layer which is rich in leukocytes and platelets is then carefully decanted into 50 ml plastic tubes and centrifuged at about 100×g for eight minutes in and IEC centrifuge and rotor number 269 (about 600 rpm). The supernatant fluid is discarded and the pellet is resuspended in 10 ml of 0.87% ammonium chloride for exactly two minutes. This procedure is to lyse completely contaminating red blood cells. Leukocytes are then separated by centrifugation for ten minutes. The pellet is washed three times by suspension in 20 ml PBS (sodium chloride, 7.1 g; Na2 HPO4, 1.15 g; KH2 PO4,0.2 g, and KCl, 0.2 g/L) and centrifuged as before. The final pellet is suspended in PBS containing 0.87 mM CaCl2. Viability of the cells is then checked using trypan blue exclusion method and is found to be over 90%.
5-Lipoxygenase Enzyme Assay
Leukocyte cells in suspension (0.98 ml) are incubated with or without test compounds for five minutes at 37° C. in a shaking water bath. At this time a […] mixture is perpared per 1 ml of cell suspension: 100 mM arachidonic acid, 1 μl, 0.05 μCi ^14 C-arachidonic acid in 5 μl; 1 mM calcium ionophore A23187, 10 μl (1). This mixture is added and the incubation continued for five minutes. The reaction is stopped by adding four volumes of absolute ethanol and the mixture is kept in ice for 30 minutes. The floculated precipitate is separated by centrifugation at about 37,000×g for 20 minutes (Beckman Instruments rotor number 40). The alcohol extract is taken to dryness under a stream of nitrogen and the residue is dissolved in 100-200 μl absolute ethanol. At the time any turbidity is removed by centrifugation. An aliquot (25-50 μl) is applied onto 20×20 cm silica gel TLC plate and developed using the following solvent system: diethyl ether, petroleum ether (2040°C.),acetic acid (50:50: 1 v/v). Zones of 1 cm apart are scraped from the TLC plate and transferred to mini-vials. Methanol (0.5 ml) is added to dissolve the radioactivity adsorbed to the silica gel and scintillation fluid (H. P., Beckman), 5 ml is then added and vials are counted in a liquid scintillation counter. A sample of ^3 H-5-HETE is applied and used for the identification of the formed 5-HETE. Total radioactivity in the test as well as the control samples are normalized and the amount of 5-HETE present is calculated accordingly.
IC50 values are defined as the concentrations of test agents which caused a 50% inhibition of the formation of 5-HETE as compared to control and are determined by inspection of the concentration-response curves.

[2] = molecular target: T2, 5-lipoxygenase (isolated human leukocytes) (Homo sapiens, UniProt P09917); experiment: 5-Lipoxygenase Assay Using Isolated Human Leukocytes (5LOA2); assay type: cell-based
T2 construct: 5-Lipoxygenase Assay Using Isolated Human Leukocytes (5LOA2); endogenous in cells; host or cells: isolated human blood leukocytes, platelets removed
T2 sequence (P09917 1-674): T1 sequence (P09917 1-674)
Description: 5-Lipoxygenase Assay Using Isolated Human Leukocytes (5LOA2)
The formation of 5-HETE in human leukocytes is considered a measure of 5-lipoxygenase activity. The protocol is described in the following.
Fresh heparinized or EDTA treated human blood is mixed with 6% dextran-3% dextrose in isotonic saline in the ratio 0.25 ml dextran solution per 1.0 ml blood. After mixing the blood is allowed to sit at room temperature for about 90 minutes while the RBC's settle. During this period, the plasma is removed with a plastic pipette to nalgens tubes.
The plasma is centrifuged at 800 rpm ([…]) on the Beckman Td-b refrigerated centrifuge to remove the platelets (which remain in the supernatant). The pellet, consisting of leukocytes and erythrocytes, is treated with 10 ml 0.87% ammonium chloride at room temperature for four minutes, lysing the red cells. At the end of four minutes the cells are diluted with a 2×volume of phosphate buffered saline, pH 7.4, and centrifuged for ten minutes. The cells are washed three times with the phosphate buffered saline. Any of the pelleted cell matter which is not easily resuspended is discarded during the washings --the material contains platelets (12-lipoxygenase activity).
After washing, the cells are resuspended in phosphate buffered saline containing 1.0 mM calcium and 0.5 mM magnesium. After counting the cells are diluted to 1.5-2.0×10^7 leukocytes per milliliter.
To each polypropylene reaction tube is added 0.48 ml leukocytes in Ca-Mg phosphate buffered saline, pH 7.4; 1-5 μl test compound dissolved in DMSO and buffer; or DMSO for control tubes.
The tubes preincubate at 37° C. for five minutes. […]
A portion of the ethanol solution is injected into the HPLC system for 5-HETE quantitation.
The HPLC system consists of Hewlett-Packard 1040A UV spectrophotometry system with an HP85 computer. […] Peaks are measured with a Hewlett Packard 3360A integrator. […] The flow is monitored at 235 nm for 5-HETE quatitation. […]

[3] = system: Human Leukocyte Lipoxygenase; experiment: Human Leukocyte Lipoxygenase Assay (LDA-H / LDAH); assay type: biochemical; settings: for IC50: 50% reduction of reaction rate vs control, E -number means X 10^-no.
Description: Human Leukocyte Lipoxygenase Assay (LDA-H)
Whole blood is collected from normal volunteers and spun in a refrigerated centrifuge for four minutes at 1°-6° C. at 3800 g. The buffy coat is manually separated and washed twice with chilled 0.83% NH4 Cl and centrifuged at 1000 RPM for ten minutes at 4° C. The white cell is suspended in culture media-EMEM supplemented with 6% Agamma human serum, tricine buffer, and neomycin and recentrifuged at 1000 g to yield a pellet containing the leukocytes used for the preparation of the acetone pentane powder.
The acetone-pentane powder is prepared utilizing a modification of the procedure reported for human platelet lipoxygenase. See Siegel, et al, Arachidonate Metabolism via Lipoxygenase and 12-L-hydroperoxy-5-Eicostetraenoic acid Peroxidase Sensitive to Antiinflammatory Drugs, Proc. Natl. Acad. Sci., USA 77:308, 1980 and D. P. Wallach and V. R. Brown, a novel Preparation of Human Platlet Lipoxygenase, Biochem. Biophys. Acta. 663:361, 1981. Buffy coat prepared above is resuspended in 5-7 volumes of cold 0.1M Tris buffer, pH 7.4 containing 0.154M NaCl. The suspension is centrifuged at 13,300 g for ten minutes at 4° C. The resultant pellet was retained, resuspended in five volumes of cold acetone, recentrifuged at 13,300 g and resuspended in five volumes of cold pentane. The pentane suspension is centrifuged for ten minutes at 13,300 g to give a pellet which is dried in the cold under vacuum with periodic pulverization. The dry powder is stable for several weeks when stored at -88° C.
Enzyme stock solution is prepared in the following manner. About 15 mg of the acetone-pentane powder sis suspended in 4 ml of cold tris buffer (0.1M, pH 7.4), allowed to stand for five minutes, and homogenized thorougly. The homogenate is sonicated three times for 15 seconds each time, diluted to 7 ml with cold tris buffer (0.1M, pH 7.4), and centrifuged at 4° C. for 60 minutes at 13,300 g. The supernatent is retained and diluted to a total of 10 ml with cold tris buffer (0.1M, pH 7.4) to give the stck enzyme solution. Additional dilutions of 2-50 fold are done as necessary to locate optimal enzyme reaction rate in the assay described below.
Substrate solution is prepared at 100 μM or 1.0 μM concentrations of arachidonic acid or linoleic acid in 0.1M tris buffer, pH 9.0 containing 20% ethanol.
The enzyme reaction is followed spectrophotometrically by the appearance of a conjugated diene product at 234 nm. The reaction is monitored at 24° C. using a Gilford Model 2600 spectrophotometer. […] The effects of inhibitors on the reaction are compared with control reactions run under indentical conditions. Routinely, each compounds of the present invention is incubated with the enzyme for five minutes prior to addition of substrate to initiate the reaction. Inhibition expressed as IC50 as molar concentration of the compound required to reduce reaction rate to 50% control.

Row | SMILES | IC50 ([1]; read-out: IC50 (5LOA)) | IC50 [3] [µM] | also measured
1 | CCCCCCCCCCc1ccc(NC(=O)c2cc([N+](=O)[O-])ccc2O)cc1 [Example 21, N-(4-n-decylphenyl)-2-hydroxy-5-nitro-benzamide] | – | – | IC50 ([1]; IC50 (5LOA)): 20.8 µM
2 | O=C(Nc1ccc(CCc2ccc(Cl)c(Cl)c2)cc1)c1cccc(Cl)c1O [Example 34] | 39.2 µM | – | –
3 | O=C(Nc1ccc(CCc2ccc(Cl)c(Cl)c2)cc1)c1ccccc1O [Example 42] | – | – | % Inhibition (5LOA2) ([2]; 5LOA2, 2.00 E -5 M): 30.9%; % Inhibition (5LOA2) ([2]; 5LOA2, 5.00 E -6 M): 21.1%
4 | COc1ccc(CCc2ccc(NC(=O)c3ccccc3O)cc2)cc1OC [Example 48, N-[4-[2-(3,4-dimethoxyphenyl)ethyl]phenyl]-2-hydroxybenzamide] | 4.2 µM and 3.5 µM | – | % Inhibition (LDAH) ([3]; 2.50 E -5 M): 0.0%
5 | COc1ccc(CCc2ccc(N(C)C(=O)C(=O)c3ccccc3O)cc2)cc1OC [Example 51, N-Methyl-N-[4-(2-(3,4-dimethoxyphenyl)ethyl)phenyl]-2-hydroxy-α-oxo-benzeneacetamide] | 11.1 µM | – | –

Further lines, with some results ahead:

Row | IC50 ([1]; read-out: IC50 (5LOA)) | IC50 [3] [µM] | SMILES | also measured
6 | 7.1 µM | – | COc1ccc(C(=O)Nc2ccc(CCc3ccc(O)c(O)c3)cc2)c(O)c1 [Example 8, N-[4-[2-(3,4-Dihydroxyphenyl)ethyl]phenyl]-2-hydroxy-4-methoxybenzamide] | –
7 | 5.3 µM | – | Cc1ccc(C(=O)N(C)c2ccc(CCc3ccc(O)c(O)c3)cc2)c(O)c1 [Example 43] | –
8 | 5 µM | 0.184 | COc1ccc(CCc2ccc(NC(=O)C(=O)c3ccccc3O)cc2)cc1OC [Example 52, N-[4-(2-(3,4-dimethoxyphenyl)ethyl)phenyl]-2-hydroxy-α-oxo-Benzeneacetamide] | –
9 | 3.38 µM | 17 | O=C(Nc1ccc(CCc2ccc(O)c(O)c2)cc1)C(=O)c1ccccc1O [Example 53, N-[4-[2-(3,4-dihydroxyphenyl)ethyl]-phenyl]-2-hydroxy-α-oxo-benzeneacetamide] | –
10 | 7.1 µM and 8.17 µM | 3.9 | CC(C)(C)c1cccc(C(=O)C(=O)Nc2ccc(CCc3ccc(O)c(O)c3)cc2)c1O [Example 55, N-[4-[2-(3,4-dihydroxyphenyl)ethyl]phenyl]-3-(1,1-dimethylethyl)-2-hydroxy-α-oxobenzenacetamide] | –
